In US12529066B2, “Plants having increased tolerance to herbicides” (BASF AGRO B.V., priority 2012, dated 2026):

Assays:
[1] = test system: Chlamydomonas reinhardtii; test: Selection of Chlamydomonas reinhardtii strains on solid medium containing herbicide; type: cell-based; details: solid medium containing 1×10^−7 M
[2] = test system: Chlamydomonas reinhardtii; test: Dose-response curves of Chlamydomonas reinhardtii wild-type and mutagenized cells (strain 17); details: mutagenized cells (strain 17) versus wild-type cells

C#CCN1C(=O)C(F)(F)Oc2cc(F)c(-n3c(=O)n(C)c(=S)n(C)c3=O)cc21 [I.a.35]
growth of resistant mutagenized cells on solid medium ([1]; resistant cells (colonies 31 and 32)): form colonies
growth of susceptible mutagenized cells on solid medium ([1]; susceptible cells): do not grow
IC50 of strain 17 compared to Wild-type cells [2]: much lower IC50
